Legend:
[1] = tested on: CPAE (calf pulmonary artery endothelial cell); assay: Inhibiting activity on cell proliferation, SRB analysis (CPAE); format: cell-based; settings: for IC50: Bos taurus, Endothelial cell, 72 h, CPAE cells, 3 days with drug, SRB, read-out: IC50 (nM) CAPE; for Selectivity Index (L5178Y/CAPE): IC50 L5178Y / IC50 CPAE
Experimental: (§1) In order to compare the safety index (SI) of CPAE (calf pulmonary artery endothelial cell) with that of HUVEC (human umbilical vein endothelial cell), L5178Y lymphoma that was isolated from murine thymus was used. The safety index was defined as IC50 ratio of L5178Y against CPAE (IC50L5178Y/IC50CPAE). All cell lines, which had been kept in liquid nitrogen tank, were used after being thawed and subcultured 2˜3 times in T-flask. CPAE, HUVEC and L5178Y were cultured in MEM culture medium (20% FBS, 50˜100 μg/ml ECGS, 0.15% baking soda, 0.05 mg/ml gentamicin), M199 culture medium (20% FBS, 0.22% baking soda, 100 μg/ml heparin, 3 ng/ml bFGF, 0.05 mg/ml gentamicin) and RPMI 1640 culture medium (10% FBS, 0.2% baking soda, 0.05 mg/ml gentamicin), respectively, under the condition of 37° C. and 5% CO2.
(§2) The drug was prepared by being gradationally diluted to two or ten times by using PBS, 20 μl of the solution was added to each well of 96 well plate in triplicate. The cell, which is being incubated, was treated with trypsin to give cell suspension. The number of cell thereafter was counted. And 180 μl of the solution was inoculated to each well and cultured.
(§3) The cell was cultured with drugs for 3 days and then 50 μl of 50% TCA was added thereto (final concentration 10%). Subsequently the cell was fixed by being left alone at 4° C. for 1 hour. The well was washed 4 times by distilled water and then dried. After that 100 μl of SRB (Sulforhodamine B, Sigma Chemical Co.) solution (0.4% w/v in 1% acetic acid) was added thereto and then it was left alone at ordinary temperature for 30 minutes. Thereafter the well was washed 4 times by 1% acetic acid and dried. And then after adding 200 μl of 10 mM tris buffer, the absorbance at 570 nm was measured by automatic microplate reader (Model: Elx 808, Bio-Tek Instrument, INC). The viability was calculated from the ratio of the absorbance of the control to which drugs were not added and the well to which drugs were added.

[2] = tested on: HUVEC (human umbilical vein endothelial cell); assay: Inhibiting activity on cell proliferation, SRB analysis (HUVEC); format: cell-based; settings: Homo sapiens, 72 h, HUVEC cells, 3 days with drug
Experimental: as §1, §2, §3

L5178Y lymphoma = assay: Inhibiting activity on cell proliferation, MTT analysis (L5178Y); format: cell-based, murine; settings: Mus musculus, 72 h, L5178Y lymphoma cells, 3 days with drug
Experimental: as §1, §2
The tumor cell was cultured with drugs for 3 days and then 50 μl of MTT (3-(4,5-dimethylthiazole-2-yl)-2,5-diphenyl tetrazolium bromide, Sigma Chemical Co.) solution (2.5 mg/ml in PBS) was added thereto. And it was further cultured for 4 hours at 37° C. Culture medium was removed carefully. And after dissolving formazan crystal by adding 150 μl of DMSO, the absorbance at 570 nm was determined.

Solubility test = format: physicochemical; settings: ordinary temperature
Experimental: To a constant amount (400 mg) of each compounds of present invention, a constant amount of demineralized water, methanol and ethanol were added separately, and the solution was stirred at ordinary temperature.

[3] = Chemical stability test (HPLC purity)
Experimental: Each compound of the present invention was kept in an air-tight vessel for 1 month at 40±2° C. and 75±5% of relative humidity. Thereafter the HPLC purity test was executed.
25 mL of the solution was precisely taken, and poured into 100 mL volumetric flask. Acetonitrile/20 mM ammonium acetate aqueous solution (50:50) was added thereto to be the total volume of 100 ml. The solution was filtrated, and the filtrate was used as a test liquid.
(2) Operational Condition of Instrument. • Column: Kromasil®C18 (UG 100 Å, 5 μm, 4.6 mm Φ×250 mm) • Column temperature: 30° C. • Mobil phase: 20 mM ammonium acetate (pH 4.2) buffer:acetonitrile (55:45) • Injection volume: 20 μL • Flow rate: 1.2 mL/min • Detector: UV light-absorption Spectrophotometer (detection wavelength: 306 nm)

[4] = 1 month at 40±2° C., 75±5% relative humidity
[5] = HPLC, 1 month at 40±2° C., 75±5% relative humidity, air-tight vessel

| Compound | IC50 (L5178Y lymphoma) [nM] | The amount of solvent to dissolve 1 g of the compounds (ml), demineralized water (Solubility test; demineralized water) [mL] | The amount of solvent to dissolve 1 g of the compounds (ml), ethanol (Solubility test; ethanol) [mL] | The amount of solvent to dissolve 1 g of the compounds (ml), methanol (Solubility test; methanol) [mL] | change of purity (in words) [3, 4] | 1 month Other peaks (%) [3, 5] [%] | 1 month Parent peak (%) [3, 5] [%] | Initial Other peaks (%) ([3]; HPLC, initial) | Initial Parent peak (%) ([3]; HPLC, initial) | change of purity (%) ([3]; initial vs 1 month at 40±2° C., 75±5% relative humidity) | IC50 [1] [nM] | Selectivity Index (L5178Y/CAPE) [1] | IC50 [2] [nM] | chemical stability compared to known compounds [3, 4] |
| --- | --- | --- | --- | --- | --- | --- | --- | --- | --- | --- | --- | --- | --- | --- |
| CO[C@@H]1[C@H](OC(=O)/C=C/c2ccc(OCCCCCO)c([N+](=O)[O-])c2)CC[C@]2(CO2)[C@H]1[C@@]1(C)O[C@@H]1CC=C(C)C [Example 24, O-(3-nitro-4-(5-hydroxypentoxy)cinnamoyl)fumagillol] | 10400 |  |  |  |  |  |  |  |  |  | 0.0946 | 1.10 × 10^5 | 0.0042 |  |
| CO[C@@H]1[C@H](OC(=O)/C=C/c2ccc(Oc3ccc(CO)cc3)cc2)CC[C@]2(CO2)[C@H]1[C@@]1(C)O[C@@H]1CC=C(C)C [Example 8, O-(4-(4-hydroxymethylphenoxy)cinnamoyl)fumagillol] | 60200 |  |  |  |  |  |  |  |  |  | 0.857 | 7.03 × 10^4 | 0.00456 |  |
| COc1cc(/C=C/C(=O)O[C@@H]2CC[C@]3(CO3)[C@@H]([C@@]3(C)O[C@@H]3CC=C(C)C)[C@@H]2OC)cc(OC)c1Oc1ccc(CO)cc1 [Example 9, O-(3,5-dimethoxy-4-(4-hydroxymethylphenoxy)cinnamoyl)fumagillol] | 61200 |  |  |  |  |  |  |  |  |  | 0.811 | 7.54 × 10^4 | 0.00361 |  |
| CO[C@@H]1[C@H](OC(=O)/C=C/c2ccc(OCCCCCO)cc2)CC[C@]2(CO2)[C@H]1[C@@]1(C)O[C@@H]1CC=C(C)C [Example 23, O-(4-(5-hydroxypentoxy)cinnamoyl)fumagillol] | 9250 |  |  |  |  |  |  |  |  |  | 0.0467 | 1.98 × 10^5 | 0.0057 |  |
| CO[C@@H]1[C@H](OC(=O)/C=C/c2ccc(OCCCCCCO)cc2)CC[C@]2(CO2)[C@H]1[C@@]1(C)O[C@@H]1CC=C(C)C [Example 25, O-(4-(6-hydroxyhexyloxy)cinnamoyl)fumagillol] | 21100 |  |  |  |  |  |  |  |  |  | 0.124 | 1.70 × 10^5 | 0.0015 |  |

Continued, in another order:

| IC50 (L5178Y lymphoma) [nM] | The amount of solvent to dissolve 1 g of the compounds (ml), demineralized water (Solubility test; demineralized water) [mL] | The amount of solvent to dissolve 1 g of the compounds (ml), ethanol (Solubility test; ethanol) [mL] | The amount of solvent to dissolve 1 g of the compounds (ml), methanol (Solubility test; methanol) [mL] | change of purity (in words) [3, 4] | 1 month Other peaks (%) [3, 5] [%] | 1 month Parent peak (%) [3, 5] [%] | Initial Other peaks (%) ([3]; HPLC, initial) | Initial Parent peak (%) ([3]; HPLC, initial) | change of purity (%) ([3]; initial vs 1 month at 40±2° C., 75±5% relative humidity) | Compound | IC50 [1] [nM] | Selectivity Index (L5178Y/CAPE) [1] | IC50 [2] [nM] | chemical stability compared to known compounds [3, 4] |
| --- | --- | --- | --- | --- | --- | --- | --- | --- | --- | --- | --- | --- | --- | --- |
| 27300 | 145 | 65 | 49 | hardly showed a change of purity | 1.5 | 98.5 | 1.3 | 98.7 | 0.2 | COc1ccc(/C=C/C(=O)O[C@@H]2CC[C@]3(CO3)[C@@H]([C@@]3(C)O[C@@H]3CC=C(C)C)[C@@H]2OC)cc1OCCO [Example 4, O-(3-(2-hydroxyethoxy)-4-methoxycinnamoyl)fumagillol] | 0.006 | 4.53 × 10^6 | 0.00376 | more excellent chemical stability than TNP-470, CKD-732 and CKD-731 |
| 41900 |  |  |  |  |  |  |  |  |  | CO[C@@H]1[C@H](OC(=O)/C=C/c2ccc(Cl)c(NCCOCCO)c2)CC[C@]2(CO2)[C@H]1[C@@]1(C)O[C@@H]1CC=C(C)C [Example 18, O-(4-chloro-3-(2-hydroxyethoxyethylamino)cinnamoyl)fumagillol] | 0.045 | 9.31 × 10^5 | 0.0019 |  |
| 30700 |  |  |  |  |  |  |  |  |  | CO[C@@H]1[C@H](OC(=O)/C=C/c2cccc(NCCOCCO)c2)CC[C@]2(CO2)[C@H]1[C@@]1(C)O[C@@H]1CC=C(C)C [Example 17, O-(3-(2-hydroxyethoxyethylamino)cinnamoyl)fumagillol] | 0.049 | 6.26 × 10^5 | 0.00302 |  |

Reference: US20100056623A1, “FUMAGILLOL DERIVATIVES OR METHOD FOR PREPARATION OF FUMAGILLOL DERIVATIVES, AND PHARMACEUTICAL COMPOSITIONS COMPRISING THE SAME” (CHONG KUN DANG PHARMACEUTICAL CORP., priority 2005, published 2010)
